Results taken from patent US10111863B2 (CYDEX PHARMACEUTICALS, INC., priority 2009, dated 2018).
Counter-ions that a name gives are not always drawn. Like-named read-outs stand apart in the source and are kept apart here.

Assays:
[1] = cited from earlier work
[2] = Phase solubility of prasugrel in aqueous SBE6.5-β-CD or HP4.3-β-CD at pH 4; type: physicochemical; details: for solubility: thermodynamic from solid
Text: The results of the phase solubility study at pH 4 are also depicted graphically in FIG. 3. […] Note that the data obtained for the 10% w/v cyclodextrin derivatives was not included in the best-fit line that appears in FIG. 3.

platelet = details: healthy subjects; cited from earlier work
platelet aggregation = details: after treatment is stopped; cited from earlier work
[3] = Stability of prasugrel in 30% w/v SBE6.5-β-CD at pH 3, 4 and 6 (HPLC); type: physicochemical; details: for decrease in prasugrel concentration: 30% w/v SBE6.5-β-CD
Experimental: The solutions were sampled at 0, 2, 7 and 53 hours. […] The data obtained from the stability study is provided graphically in FIG. 5.

[4] = Stability of prasugrel in 30% w/v SBE6.5-β-CD or HP4.3-β-CD at pH 4 (HPLC); type: physicochemical
[5] = Phase solubility of prasugrel in aqueous SBE6.5-β-CD at pH 7.4; type: physicochemical; details: for solubility: aqueous solution, pH 7.4, aqueous with cosolvent or surfactant or cyclodextrin, thermodynamic from solid, Prasugrel Solubility
Text: The results of the phase solubility study at pH 7.4 are also depicted graphically in FIG. 2.

**Q.** Which pKa value [1] does the source give for `CC(=O)Oc1cc2c(s1)CCN(C(C(=O)C1CC1)c1ccccc1F)C2` (racemic) [Prasugrel hydrochloride] here?
**A.** 5.1

**Q.** And the solubility ([1]; pH 1-4)?
**A.** soluble to slightly soluble

**Q.** And the solubility ([1]; pH 5)?
**A.** very slightly soluble

**Q.** What about the solubility ([1]; pH 6-7) of the same compound?
**A.** practically insoluble

**Q.** Which results are given for `CC(=O)Oc1cc2c(s1)CCN(C(C(=O)C1CC1)c1ccccc1F)C2` (racemic) [Prasugrel, 5-[(1RS)-2-cyclopropyl-1-(2-fluorophenyl)-2-oxoethyl]-4,5,6,7-tetrahydrothieno[3,2-c]pyridin-2-yl acetate]?
**A.** solubility ([2]; aqueous HP4.3-β-CD solution, pH 4, aqueous with cosolvent or surfactant or cyclodextrin, Prasugrel Solubility w/ HP4.3-β-CD, HP4.3-β-CD 30% w/v): 645 µg/mL; solubility ([2]; aqueous SBE6.5-β-CD solution, pH 4, aqueous with cosolvent or surfactant or cyclodextrin, Prasugrel Solubility w/ SBE6.5-β-CD, SBE6.5-β-CD 30% w/v): 664 µg/mL; solubility ([2]; aqueous solution, pH 4, aqueous buffer, Prasugrel Solubility w/ HP4.3-β-CD, cyclodextrin derivative 0% w/v): 206 µg/mL; solubility ([2]; aqueous solution, pH 4, aqueous buffer, Prasugrel Solubility w/ SBE6.5-β-CD, cyclodextrin derivative 0% w/v): 206 µg/mL; solubility ([2]; aqueous solution, pH 4, aqueous with cosolvent or surfactant or cyclodextrin, Prasugrel Solubility w/ HP4.3-β-CD, HP4.3-β-CD 5% w/v): 256 µg/mL; solubility ([2]; aqueous solution, pH 4, aqueous with cosolvent or surfactant or cyclodextrin, Prasugrel Solubility w/ HP4.3-β-CD, HP4.3-β-CD 10% w/v): 474 µg/mL; solubility ([2]; aqueous solution, pH 4, aqueous with cosolvent or surfactant or cyclodextrin, Prasugrel Solubility w/ HP4.3-β-CD, HP4.3-β-CD 20% w/v): 524 µg/mL; solubility ([2]; aqueous solution, pH 4, aqueous with cosolvent or surfactant or cyclodextrin, Prasugrel Solubility w/ HP4.3-β-CD, HP4.3-β-CD 40% w/v): 875 µg/mL; solubility ([2]; aqueous solution, pH 4, aqueous with cosolvent or surfactant or cyclodextrin, Prasugrel Solubility w/ SBE6.5-β-CD, SBE6.5-β-CD 5% w/v): 268 µg/mL; solubility ([2]; aqueous solution, pH 4, aqueous with cosolvent or surfactant or cyclodextrin, Prasugrel Solubility w/ SBE6.5-β-CD, SBE6.5-β-CD 10% w/v): 736 µg/mL; solubility ([2]; aqueous solution, pH 4, aqueous with cosolvent or surfactant or cyclodextrin, Prasugrel Solubility w/ SBE6.5-β-CD, SBE6.5-β-CD 20% w/v): 580 µg/mL; solubility ([2]; aqueous solution, pH 4, aqueous with cosolvent or surfactant or cyclodextrin, Prasugrel Solubility w/ SBE6.5-β-CD, SBE6.5-β-CD 40% w/v): 927 µg/mL; prasugrel solubility as a function of the derivatized cyclodextrin concentration ([2]; both HP4.3-β-CD and SBE6.5-β-CD, FIG. 3): increased linearly; platelet inhibition and response compared to clopidogrel (platelet): greater platelet inhibition and more consistent response; time to return to baseline levels of platelet aggregation (platelet aggregation): 7 to 10 days; decrease in prasugrel concentration ([3]; pH 3, 0.1 M phosphate buffer, after 30 hours): less than 10%; decrease in prasugrel concentration ([3]; pH 3, 0.1 M phosphate buffer, after about 55 hours): less than 20%; decrease in prasugrel concentration ([3]; pH 4, 0.1 M phosphate buffer, after 30 hours): less than 10%; decrease in prasugrel concentration ([3]; pH 4, 0.1 M phosphate buffer, after about 55 hours): less than 20%; decrease in prasugrel concentration ([3]; pH 6, 0.1 M phosphate buffer, after 30 hours): about 20%; decrease in prasugrel concentration ([3]; pH 6, 0.1 M phosphate buffer, after about 55 hours): about 36%; stability in aqueous solution containing a sulfoalkyl ether-β-cyclodextrin versus pH ([3]; pH 3, 4 and 6 compared): more stable at pH 4 or less; stability in aqueous solution containing a sulfoalkyl ether-β-cyclodextrin versus pH [4]: more stable at pH 4 or less; stability in SBE6.5-β-CD versus HP4.3-β-CD ([4]; 30% w/v solutions, pH 4, 0.1 M phosphate buffer, FIG. 6): nearly identical stability; Prasugrel Solubility ([5]; SBE6.5-β-CD 5% w/v): 0.0054% w/v; Prasugrel Solubility ([5]; SBE6.5-β-CD 10% w/v): 0.0124% w/v; Prasugrel Solubility ([5]; SBE6.5-β-CD 20% w/v): 0.0252% w/v; Prasugrel Solubility ([5]; SBE6.5-β-CD 30% w/v): 0.0379% w/v; prasugrel solubility as a function of the derivatized cyclodextrin concentration ([5]; SBE6.5-β-CD, FIG. 2): increased linearly; solubility ([5]; SBE6.5-β-CD 5% w/v): 54 µg/mL; solubility ([5]; SBE6.5-β-CD 10% w/v): 124 µg/mL; solubility ([5]; SBE6.5-β-CD 20% w/v): 252 µg/mL; solubility ([5]; SBE6.5-β-CD 30% w/v): 379 µg/mL; solubility ([5]; SBE6.5-β-CD 40% w/v): 515 µg/mL
